According to PubChem BioAssay (NCI):
Several values for one entry are separate records, joined by “and”; a condition that tells them apart may be missing. Equal values may be shown once.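 Cells were grown in 96-well plates and exposed to each compound for 48 hours at five concentrations; endpoints were interpolated linearly between bracketing concentrations, or set to the highest concentration if not reached. The concentration for 50% growth inhibition is given as GI50. TGI marks complete inhibition of growth.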

Columns and labels:
Assay in all cases: inhibition of tumour cell growth, NCI panel, 48 h
U251 CNS = test system: U251 CNS
CCRF-CEM leukemia = test system: CCRF-CEM leukemia
SK-MEL-5 melanoma = test system: SK-MEL-5 melanoma
SK-OV-3 ovarian = test system: SK-OV-3 ovarian
SN12C renal = test system: SN12C renal
EKVX NSCLC = test system: EKVX NSCLC
COLO 205 colon = test system: COLO 205 colon
NCI-H460 lung = test system: NCI-H460 lung
HL-60(TB) leukemia = test system: HL-60(TB) leukemia
TK-10 renal = test system: TK-10 renal

Compound	GI50 (U251 CNS)	TGI (U251 CNS)	GI50 (CCRF-CEM leukemia)	TGI (CCRF-CEM leukemia)	GI50 (SK-MEL-5 melanoma)	TGI (SK-MEL-5 melanoma) [µM]	GI50 (SK-OV-3 ovarian)	TGI (SK-OV-3 ovarian)	GI50 (SN12C renal)	TGI (SN12C renal)	GI50 (EKVX NSCLC) [µM]	TGI (EKVX NSCLC) [µM]	GI50 (COLO 205 colon)	TGI (COLO 205 colon)	GI50 (NCI-H460 lung) [µM]	TGI (NCI-H460 lung) [µM]	GI50 (HL-60(TB) leukemia) [µM]	TGI (HL-60(TB) leukemia)	GI50 (TK-10 renal) [µM]	TGI (TK-10 renal) [µM]
Cn1c(/C=C(\C#N)c2cccc(C(F)(F)F)c2)nc2c(N3CCOCC3)nc(Cl)nc21	1.32 µM	2.73 µM	0.23 µM	0.75 µM	1.6 µM	2.97	3.7 µM	14.5 µM	0.829 µM	2.14 µM	1.21	2.73	1.12 µM	2.67 µM	1.67	3.61	0.486	2.54 µM	1.72	3.14
O=c1cc(-c2ccccc2)nc(/C=C(\O)c2ccncc2)n1-c1ccccc1		> 100 µM		> 100 µM		> 100		> 100 µM		> 100 µM		> 100		> 100 µM		> 100		> 100 µM		> 100
COc1ccc(OC)c(NCC#N)c1		> 100 µM		> 100 µM		> 100		> 100 µM		> 100 µM		> 100		> 100 µM		> 100		> 100 µM		> 100
CC(=O)C1COC(O)C1C (configuration not stated)		58.2 µM		> 100 µM		29.7		82.3 µM		50.6 µM		> 100		34.5 µM		44.5		39.7 µM		> 100
COc1cc2cc3c4c(cc(OC)c(OC)c4c2cc1OC)CCN3C(=O)N(C)C		> 100 µM		> 100 µM		> 100		> 100 µM		> 100 µM		> 100		> 100 µM		> 100		> 100 µM		> 10
COc1cc(F)cc([C@@H](CO)NC(=O)[C@@H](C)N2Cc3ccc(-c4nc(NC5CCOCC5)ncc4Cl)cc3C2=O)c1	8.72 µM	> 100 µM	17.1 µM	> 92.8 µM	0.405 µM	14.8	3.25 µM	> 100 µM	1.33 µM	> 100 µM	0.108	66	< 0.01 µM	2.37 µM	6.14	> 100	< 0.01	0.859 µM	0.0624	> 76.8
CN[C@@H]1C[C@H]2O[C@@](C)([C@@H]1OC)n1c3ccccc3c3c4c(c5c6ccccc6n2c5c31)C(=O)N[C@H]4O	0.0676 µM	0.651 µM	0.0307 µM	> 10 µM	0.102 µM	1.39	0.0337 µM	0.298 µM		1.7 µM	0.059	> 10	0.0311 µM	0.267 µM	0.0471	1.23		0.52 µM	0.0096	0.0541
C/C(CC(=O)Nc1ccc(Cl)cc1)=N\NC(=O)C[n+]1ccccc1		> 100 µM		> 100 µM		> 100		> 100 µM				> 100		> 100 µM		> 100		> 100 µM		> 100
O=C(/C=C/c1cccc([N+](=O)[O-])c1)c1ccc(O)c(CN2CCN(c3cc4c(cc3F)c(=O)c(C(=O)O)cn4C3CC3)CC2)c1	1.17 µM	2.62 µM	1.6 µM	10.8 µM	1.7 µM	3.25	5 µM	> 100 µM	1.75 µM	3.45 µM	1.71	3.32			3.43	19.3	2.24	6.58 µM	2.1	5.59
NC(CC(=O)Nc1ccc(Cl)cc1)=Nc1ccccc1		> 100 µM				> 100		> 100 µM		> 100 µM		> 100		> 100 µM		> 100		> 100 µM		> 100
Cc1cc(Oc2cnc(=O)[nH]c2)cs1		> 100 µM		> 100 µM		> 100		> 100 µM		> 100 µM		> 100		> 100 µM		> 100		> 100 µM		> 100
COc1ccc2c(c1)c1nc3cc(C)c(C)cc3nc1n2CCN(C)C	0.57 µM	2.19 µM	0.797 µM	3.67 µM	1.62 µM	3.01	1.5 µM	3.48 µM	0.534 µM	1.99 µM	1.16	2.85	0.42 µM	1.88 µM	0.369	1.39	0.992	3.36 µM	1.84	3.58
NC(=S)N/N=C/c1ccc(O)cn1	9.35 µM and 6.93 µM	391 µM and 602 µM	4.59 µM and 2.42 µM	37.4 µM and 12 µM and 60.8 µM	11.3 µM and 8.06 µM		128 µM and 25.8 µM	953 µM and 613 µM	8.5 µM and 7.93 µM	312 µM and 119 µM	82.5	210	35.8 µM and 55 µM and 8.96 µM	> 1500 µM and 655 µM	29.1	595	13.7	44.7 µM and 21 µM and 21.7 µM		> 1390
Clc1cccc(N2CCN(CCN3CCc4c([nH]c5ccccc45)C3c3cccnc3)CC2)c1 (configuration not stated)		> 100 µM		> 100 µM		> 100		> 100 µM		> 92.2 µM		99.7		> 84 µM		> 100		> 100 µM		> 100
O=C1C2=C(CCCCC2)C2CCCCC12O (configuration not stated)		> 100 µM		> 100 µM				> 100 µM		> 100 µM		> 100		> 100 µM		> 100		> 100 µM		> 100
O=C1C2CC=CCC2C(=O)C12CCc1ccccc12 (configuration not stated)		> 100 µM		> 100 µM				> 100 µM		> 100 µM		> 100		> 100 µM		> 100		> 100 µM		> 100
c1cncc(-c2nc3ccccc3s2)c1	97 µM	> 100 µM			> 100 µM	> 100	> 100 µM	> 100 µM	> 100 µM	> 100 µM	41.2	> 100	> 100 µM	> 100 µM	> 100	> 100	> 100	> 100 µM	> 100	> 100
COc1ccc(-c2nnc(-c3c(C)n(C)n(-c4ccccc4)c3=O)o2)cc1		> 100 µM		> 100 µM				> 100 µM		> 100 µM		> 100		> 100 µM		> 100		> 100 µM		> 100
